# In ChEMBL document CHEMBL1126607, “Synthesis and binding characteristics of potential SPECT imaging agents for sigma-1 and sigma-2 binding sites” (J Med Chem, 1993):
# pKi: −log10 of the molar value.
# Target: Sigma 2 receptor
# Assay: The Binding affinity was evaluated using [3H]DTG -(+)-Dextrallorphan] in rat liver
row,pKi,SMILES
1,5.81,Cc1ccc(NC(=N)Nc2ccc(C)cc2)cc1

# Target: Sigma 2 receptor
# Assay: Binding affinity was evaluated against sigma-2 binding site in rat liver using [3H]DTG -(+)-Dextrallorphan as radioligand
row,SMILES,pKi
1,CN(CCc1cccc(Br)c1)CCN1CCCC1,7.22
2,CN(CCc1cccc(F)c1)CCN1CCCC1,6.98
3,CN(CCN1CCCC1)Cc1cccc(Br)c1,6.66
4,CN(CCc1ccc(F)cc1)CCN1CCCC1,6.91
5,CN(CCc1ccc(Cl)cc1)CCN1CCCC1,7.30

# Continued, values first:
row,pKi,SMILES
1,7.55,CN(CCc1cccc(Cl)c1)CCN1CCCC1
2,8.04,CN(CCc1cccc(I)c1)CCN1CCCC1
3,7.37,CN(CCc1ccc(I)cc1)CCN1CCCC1
4,7.61,CN(CCN1CCCC1)Cc1ccc(I)cc1
5,8.09,CN(CCc1ccc(Cl)c(Cl)c1)CCN1CCCC1
6,7.49,CN(CCc1ccc(Br)cc1)CCN1CCCC1
7,7.32,CN(CCN1CCCC1)Cc1ccccc1I
8,7.47,CN(CCN1CCCC1)Cc1cccc(I)c1

# Target: Sigma 2 receptor
# Assay: The Binding affinity was evaluated against sigma-2 binding site in rat liver using [3H]- -(+)-3-PPP
row,pKi,SMILES
1,9.47,CN(CCc1ccc(Cl)c(Cl)c1)CCN1CCCC1
